# ChEMBL document CHEMBL3044779, “The action of herbicides on fatty acid biosynthesis and elongation in barley and cucumber” (Pest Manag Sci, 2010)
# The source made the active and inactive calls. The rule behind the calls is not given here.
# Key:
# [1] = test system: Hordeum vulgare; test: Inhibition of fatty acid synthesis in Hordeum vulgare (barley) using [14C]acetate assessed as reduction in [14C]-labeled 24C fatty acid level at 7 uM after 3 hr by liquid scintillation counting; type: functional, organism-based
# [2] = test system: Cucumis sativus; test: Inhibition of fatty acid synthesis in […] using [14C]acetate assessed as reduction in [14C]-labeled 22C fatty acid level at 7 uM after 3 hr by liquid scintillation counting; type: functional, organism-based
# [3] = test system: Hordeum vulgare; test: Inhibition of fatty acid synthesis in Hordeum vulgare (barley) using [14C]acetate assessed as reduction in [14C]-labeled 22C fatty acid level at 7 uM after 3 hr by liquid scintillation counting; type: functional, organism-based
# [4] = test system: Cucumis sativus; test: Inhibition of fatty acid synthesis in Cucumis sativus (cucumber) using [14C]acetate assessed as reduction in [14C]-labeled 20C fatty acid level at 7 uM after 3 hr by liquid scintillation counting relative to control; type: functional, organism-based
# [5] = test system: Hordeum vulgare; test: Inhibition of fatty acid synthesis in Hordeum vulgare (barley) using [14C]acetate assessed as [14C]-labeled 20C fatty acid level at 7 uM after 3 hr by liquid scintillation counting (reference value: 2.1 +/- 0.4%); type: functional; parameters: scale not given: the % may be the effect or the level left
# [6] = test system: Cucumis sativus; test: Inhibition of fatty acid synthesis in Cucumis sativus (cucumber) using [14C]acetate assessed as [14C]-labeled 18C fatty acid level at 7 uM after 3 hr by liquid scintillation counting (reference value: 33.5 +/- 1.5%); type: functional; parameters: scale not given: the % may be the effect or the level left
# [7] = test system: Hordeum vulgare; test: Inhibition of fatty acid synthesis in Hordeum vulgare (barley) using [14C]acetate assessed as [14C]-labeled 18C fatty acid level at 7 uM after 3 hr by liquid scintillation counting (reference value: 57 +/- 0.9%); type: functional; parameters: scale not given: the % may be the effect or the level left
# [8] = test system: Cucumis sativus; test: Inhibition of fatty acid synthesis in Cucumis sativus (cucumber) using [14C]acetate assessed as [14C]-labeled 16C fatty acid level at 7 uM after 3 hr by liquid scintillation counting (reference value: 27.6 +/- 5.1%); type: functional; parameters: scale not given: the % may be the effect or the level left
# [9] = test system: Hordeum vulgare; test: Inhibition of fatty acid synthesis in Hordeum vulgare (barley) using [14C]acetate assessed as [14C]-labeled 16C fatty acid level at 7 uM after 3 hr by liquid scintillation counting (reference value: 30.6 +/- 0.2%); type: functional; parameters: scale not given: the % may be the effect or the level left
# [10] = test system: Cucumis sativus; test: (§1) Inhibition of fatty acid synthesis in Cucumis sativus (cucumber) assessed as inhibition of [14C]acetate incoporation in total fatty acids at 7 uM measured as total disintegration per g of fresh weight after 3 hr by liquid scintillation counting (reference value: 4.4 +/- 1 dpm x 10^6 g'1 fresh wt); type: functional
# [11] = test system: Hordeum vulgare; test: Inhibition of fatty acid synthesis in Hordeum vulgare (barley) assessed as inhibition of [14C]acetate incoporation in total fatty acids at 7 uM measured as total disintegration per g of fresh weight after 3 hr by liquid scintillation counting (reference value: 5.8 +/- 1.6 dpm x 10^6 g'1 fresh wt); type: functional
# [12] = test system: Hordeum vulgare; test: Inhibition of fatty acid synthesis in Hordeum vulgare (barley) assessed as inhibition of [14C]malonate incoporation in total fatty acids at 70 uM measured as total disintegration per g of fresh weight after 3 hr by liquid scintillation counting (reference value: 5.2 +/- 0.9 dpm x 10^6 g'1 fresh wt); type: functional
# [13] = test system: Hordeum vulgare; test: Inhibition of fatty acid synthesis in Hordeum vulgare (barley) using [14C]malonate assessed as [14C]-labeled 18C fatty acid level at 70 uM after 3 hr by liquid scintillation counting (reference value: 14.4 +/- 6.3%); type: functional; parameters: scale not given: the % may be the effect or the level left
# [14] = test system: Cucumis sativus; test: Inhibition of fatty acid synthesis in Cucumis sativus (cucumber) using [14C]malonate assessed as [14C]-labeled 16C fatty acid level at 70 uM after 3 hr by liquid scintillation counting (reference value: 5.1 +/- 0.9%); type: functional; parameters: scale not given: the % may be the effect or the level left
# [15] = test system: Hordeum vulgare; test: Inhibition of fatty acid synthesis in Hordeum vulgare (barley) using [14C]malonate assessed as [14C]-labeled 16C fatty acid level at 70 uM after 3 hr by liquid scintillation counting (reference value: 3.3 +/- 0.9%); type: functional; parameters: scale not given: the % may be the effect or the level left
# [16] = test system: Hordeum vulgare; test: Inhibition of fatty acid synthesis in Hordeum vulgare (barley) using [14C]malonate assessed as reduction in [14C]-labeled 26C fatty acid level at 70 uM after 3 hr by liquid scintillation counting relative to control; type: functional, organism-based
# [17] = test system: Cucumis sativus; test: Inhibition of fatty acid synthesis in Cucumis sativus (cucumber) using [14C]malonate assessed as reduction in [14C]-labeled 24C fatty acid level at 70 uM after 3 hr by liquid scintillation counting relative to control; type: functional, organism-based
# [18] = test system: Hordeum vulgare; test: Inhibition of fatty acid synthesis in Hordeum vulgare (barley) using [14C]malonate assessed as reduction in [14C]-labeled 24C fatty acid level at 70 uM after 3 hr by liquid scintillation counting relative to control; type: functional, organism-based
# [19] = test system: Cucumis sativus; test: Inhibition of fatty acid synthesis in Cucumis sativus (cucumber) using [14C]malonate assessed as reduction in [14C]-labeled 22C fatty acid level at 70 uM after 3 hr by liquid scintillation counting relative to control; type: functional, organism-based
# [20] = test system: Hordeum vulgare; test: Inhibition of fatty acid synthesis in Hordeum vulgare (barley) using [14C]malonate assessed as [14C]-labeled 22C fatty acid level at 70 uM after 3 hr by liquid scintillation counting (reference value: 34.7 +/- 2.4%); type: functional; parameters: scale not given: the % may be the effect or the level left
# [21] = test system: Cucumis sativus; test: Inhibition of fatty acid synthesis in Cucumis sativus (cucumber) using [14C]malonate assessed as [14C]-labeled 20C fatty acid level at 70 uM after 3 hr by liquid scintillation counting (reference value: 11.7 +/- 2%); type: functional; parameters: scale not given: the % may be the effect or the level left
# [22] = test system: Hordeum vulgare; test: Inhibition of fatty acid synthesis in Hordeum vulgare (barley) using [14C]malonate assessed as reduction in [14C]-labeled 20C fatty acid level at 70 uM after 3 hr by liquid scintillation counting relative to control; type: functional, organism-based
# [23] = test system: Cucumis sativus; test: Inhibition of fatty acid synthesis in Cucumis sativus (cucumber) using [14C]malonate assessed as [14C]-labeled 18C fatty acid level at 70 uM after 3 hr by liquid scintillation counting (reference value: 14.3 +/- 2%); type: functional; parameters: scale not given: the % may be the effect or the level left
# [24] = test system: Cucumis sativus; test: as §1, with “of [14C]malonate” for “of [14C]acetate”, “at 70” for “at 7”, “value: 16.3” for “value: 4.4”, “+/- 1.1” for “+/- 1”; type: functional
smiles,measurement,setting,value
CCN(CC)C(=O)n1cnc(S(=O)(=O)c2c(C)cc(C)cc2C)n1 [CAFENSTROLE],inhibition,[1],Active
same,inhibition,[2],Active
same,inhibition,[3],Active
same,inhibition,[4],Active
same,Activity,[5],2.2%
same,Activity,[6],39.6%
same,Activity,[7],66.1%
same,Activity,[8],60.4%
same,Activity,[9],32.4%
same,Activity,[10],2.5 ×10⁶ dpm
same,Activity,[11],5.1 ×10⁶ dpm
same,Activity,[12],2.7 ×10⁶ dpm
same,Activity,[13],65.4%
same,Activity,[14],20.4%
same,Activity,[15],10%
same,inhibition,[16],Active
same,inhibition,[17],Active
same,inhibition,[18],Active
same,inhibition,[19],Active
same,Activity,[20],14.7%
same,Activity,[21],8.4%
same,inhibition,[22],Active
same,Activity,[23],71.3%
same,Activity,[24],9.4 ×10⁶ dpm
